How the values were obtained:
[1] = system: adult and geriatric patients, milder depression; settings: 6 weeks; pooled data of 37 trials of fluoxetine and venlafaxine; cited from earlier work
[2] = system: adult and geriatric patients, milder depression; test: Gibbons et al. 2012 synthesis of 37 placebo controlled double-blind randomized trials, HDRS-17 outcome; type: in vivo, human; settings: 6 weeks; converted from HDRS-17 with the 24% increased range of the 21 item scale; pooled fluoxetine and venlafaxine

Structure (SMILES) | Estimated separation between active treatment and placebo control (HDRS-17) [1] | Equivalent difference on the HDRS-21 [2]
COc1ccc(C(CN(C)C)C2(O)CCCCC2)cc1 (stereo not shown) [venlafaxine] | −2.55 HDRS-17 units | −3.16 unit
CNCCC(Oc1ccc(C(F)(F)F)cc1)c1ccccc1 (stereo not shown) [fluoxetine] | −2.55 HDRS-17 units | −3.16 unit

— patent publication US20220313728A1 (priority 2021, published 2022)
